{"source": "patent US20250282768A1", "about": "(Janssen Pharmaceutica NV, priority 2022, published 2025)"}
{"tested_on": "p-IKKa levels in L363 (NIK translocated multiple myeloma) cells", "test": "Assay 2: Effect of compounds on p-IKKa levels in L363 (NIK translocated multiple myeloma) cells", "format": "cell-based", "details": "Homo sapiens, L-363, 6 h, read-out: Assay 2 IC50 (nM), p-IKKa (Ser 176/180) in BAFF stimulated L363 cells with MG132, 6 h; average if tested more than once", "in_short": "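Read-out is p-IKKa Ser176/180 by AlphaLISA SureFire in lysates. Cells were BAFF-primed (250 ng/ml) overnight or left unstimulated, then exposed 6 h at 37 °C to compound with MG132 (10 μM), 0.3% DMSO. IC50 from sigmoidal curve fit, normalized between stimulated and unstimulated controls.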", "units": {"IC50": "nM"}}
{"compound": "Cc1cnc(Nc2cnn(C)c2)nc1-c1cccc(-c2cc([C@]3(O)CCN(C)C3=O)on2)n1", "note": "[Example 208, (R)-3-Hydroxy-1-methyl-3-(3-(6-(5-methyl-2-((1-methyl-1H-pyrazol-4-yl)amino)pyrimidin-4-yl)pyridin-2-yl)isoxazol-5-yl)pyrrolidin-2-one]", "IC50": "> 500"}
{"compound": "[2H]c1cc(-c2cccc(-c3cc([C@]4(O)CCN(C)C4=O)on3)n2)nc(Nc2ccn(C)n2)n1", "note": "[Example 209, (R)-3-Hydroxy-1-methyl-3-(3-(6-(2-((1-methyl-1H-pyrazol-3-yl)amino)pyrimidin-4-yl-6-d)pyridin-2-yl)isoxazol-5-yl)pyrrolidin-2-one]", "IC50": "< 50"}
{"compound": "[2H]c1cc(-c2cccc(-c3cc([C@]4(O)CCN(C)C4=O)on3)n2)nc(Nc2ccn(CC)n2)n1", "note": "[Example 210, (R)-3-(3-(6-(2-((1-Ethyl-1H-pyrazol-3-yl)amino)pyrimidin-4-yl-6-d)pyridin-2-yl)isoxazol-5-yl)-3-hydroxy-1-methylpyrrolidin-2-one]", "IC50": "< 50"}
{"compound": "Cc1nn(C(F)F)cc1Nc1nccc(-c2cccc(-c3cc([C@]4(O)CCN(C)C4=O)on3)n2)n1", "note": "[Example 211, (R)-3-(3-(6-(2-((1-(Difluoromethyl)-3-methyl-1H-pyrazol-4-yl)amino)pyrimidin-4-yl)pyridin-2-yl)isoxazol-5-yl)-3-hydroxy-1-methylpyrrolidin-2-one]", "IC50": "< 50"}
{"compound": "CN1CC[C@@](O)(c2cc(-c3cccc(-c4ccnc(Nc5ccn(C6CC6)n5)n4)n3)no2)C1=O", "note": "[Example 212, (R)-3-(3-(6-(2-((1-Cyclopropyl-1H-pyrazol-3-yl)amino)pyrimidin-4-yl)pyridin-2-yl)isoxazol-5-yl)-3-hydroxy-1-methylpyrrolidin-2-one]", "IC50": "< 50"}
{"compound": "Cc1cc(Nc2nccc(-c3cccc(-c4cc([C@]5(O)CCN(C)C5=O)no4)n3)n2)ccn1", "note": "[Example 213, (R)-3-Hydroxy-1-methyl-3-(5-(6-(2-((2-methylpyridin-4-yl)amino)pyrimidin-4-yl)pyridin-2-yl)isoxazol-3-yl)pyrrolidin-2-one]", "IC50": "50 to 500"}
{"compound": "CN1CC[C@@](O)(c2cn(-c3cccc(-c4ccnc(Nc5ccn(CC(F)F)n5)n4)n3)nn2)C1=O", "note": "[Example 214, (R)-3-(1-(6-(2-((1-(2,2-Difluoroethyl)-1H-pyrazol-3-yl)amino)pyrimidin-4-yl)pyridin-2-yl)-1H-1,2,3-triazol-4-yl)-3-hydroxy-1-methylpyrrolidin-2-one]", "IC50": "< 50"}
{"compound": "CN1CC[C@@](O)(c2cc(-c3cccc(-c4ccnc(Nc5cnn(C6CNC6)c5)n4)n3)no2)C1=O", "note": "[Example 215, (R)-3-(3-(6-(2-((1-(Azetidin-3-yl)-1H-pyrazol-4-yl)amino)pyrimidin-4-yl)pyridin-2-yl)isoxazol-5-yl)-3-hydroxy-1-methylpyrrolidin-2-one]", "IC50": "> 500"}
{"compound": "CN1CC[C@@](O)(c2cc(-c3cccc(-c4ccnc(Nc5cnn6ncccc56)n4)n3)no2)C1=O", "note": "[Example 216, (R)-3-Hydroxy-1-methyl-3-(3-(6-(2-(pyrazolo[1,5-b]pyridazin-3-ylamino)pyrimidin-4-yl)pyridin-2-yl)isoxazol-5-yl)pyrrolidin-2-one]", "IC50": "< 50"}
{"compound": "CCn1ncc(Nc2nccc(-c3cccc(-c4cc([C@]5(O)CCN(C)C5=O)on4)n3)n2)c1C", "note": "[Example 217, (R)-3-(3-(6-(2-((1-Ethyl-5-methyl-1H-pyrazol-4-yl)amino)pyrimidin-4-yl)pyridin-2-yl)isoazol-5-yl)-3-hydroxy-1-methylpyrrolidin-2-one]", "IC50": "< 50"}
{"compound": "CN1CC[C@@](O)(c2cc(-c3cccc(-c4ccnc(Nc5cnc6cccnn56)n4)n3)no2)C1=O", "note": "[Example 218, (R)-3-Hydroxy-3-(3-(6-(2-(imidazo[1,2-b]pyridazin-3-ylamino)pyrimidin-4-yl)pyridin-2-yl)isoxazol-5-yl)-1-methylpyrrolidin-2-one]", "IC50": "> 500"}
{"compound": "CN1CC[C@@](O)(c2cc(-c3cccc(-c4ccnc(Nc5cnc6ccccn56)n4)n3)no2)C1=O", "note": "[Example 219, (R)-3-Hydroxy-3-(3-(6-(2-(imidazo[1,2-a]pyridin-3-ylamino)pyrimidin-4-yl)pyridin-2-yl)isoxazol-5-yl)-1-methylpyrrolidin-2-one]", "IC50": "> 500"}
{"compound": "CCn1ncc(Nc2nccc(-c3cccc(-c4cc([C@]5(O)CCN(C)C5=O)on4)n3)n2)c1OC", "note": "[Example 220, (R)-3-(3-(6-(2-((1-Ethyl-5-methoxy-1H-pyrazol-4-yl)amino)pyrimidin-4-yl)pyridin-2-yl)isoxazol-5-yl)-3-hydroxy-1-methylpyrrolidin-2-one]", "IC50": "50 to 500"}
{"compound": "CN1CC[C@@](O)(c2cc(-c3cccc(-c4ccnc(Nc5cnn6c5CCC6)n4)n3)no2)C1=O", "note": "[Example 221, (R)-3-(3-(6-(2-((5,6-Dihydro-4H-pyrrolo[1,2-b]pyrazol-3-yl)amino)pyrimidin-4-yl)pyridin-2-yl)isoxazol-5-yl)-3-hydroxy-1-methylpyrrolidin-2-one]", "IC50": "< 50"}
{"compound": "Cc1c(Nc2nccc(-c3cccc(-c4cc([C@]5(O)CCN(C)C5=O)on4)n3)n2)cnn1C", "note": "[Example 222, (R)-3-(3-(6-(2-((1,5-Dimethyl-1H-pyrazol-4-yl)amino)pyrimidin-4-yl)pyridin-2-yl)isoxazol-5-yl)-3-hydroxy-1-methylpyrrolidin-2-one]", "IC50": "< 50"}
{"compound": "Cc1c(Nc2nccc(-c3cccc(-c4cc([C@@]5(O)C(=O)N(C)CC5(F)F)on4)n3)n2)cnn1C", "note": "[Example 223, (R)-3-(3-(6-(2-((1,5-Dimethyl-1H-pyrazol-4-yl)amino)pyrimidin-4-yl)pyridin-2-yl)isoxazol-5-yl)-4,4-difluoro-3-hydroxy-1-methylpyrrolidin-2-one]", "IC50": "< 50"}
{"compound": "Cc1c(Nc2nccc(-c3cccc(-c4cc([C@]5(O)CCN(C)C5=O)on4)n3)n2)cnn1CC(F)F", "note": "[Example 225, (R)-3-(3-(6-(2-((1-(2,2-Difluoroethyl)-5-methyl-1H-pyrazol-4-yl)amino)pyrimidin-4-yl)pyridin-2-yl)isoxazol-5-yl)-3-hydroxy-1-methylpyrrolidin-2-one]", "IC50": "< 50"}
{"compound": "CCc1c(Nc2nccc(-c3cccc(-c4cc([C@]5(O)CCN(C)C5=O)on4)n3)n2)cnn1C", "note": "[Example 226, (R)-3-(3-(6-(2-((5-Ethyl-1-methyl-1H-pyrazol-4-yl)amino)pyrimidin-4-yl)pyridin-2-yl)isoxazol-5-yl)-3-hydroxy-1-methylpyrrolidin-2-one]", "IC50": "< 50"}
{"compound": "Cc1c(Nc2nccc(-c3cccc(-c4cc([C@]5(O)CCN(C)C5=O)on4)n3)n2)cnn1C(F)F", "note": "[Example 227, (R)-3-(3-(6-(2-((1-(Difluoromethyl)-5-methyl-1H-pyrazol-4-yl)amino)pyrimidin-4-yl)pyridin-2-yl)isoxazol-5-yl)-3-hydroxy-1-methylpyrrolidin-2-one]", "IC50": "< 50"}
{"compound": "CN1CC[C@@](O)(c2cc(-c3cccc(-c4ccnc(Nc5cnn(C)c5C5CC5)n4)n3)no2)C1=O", "note": "[Example 228, (R)-3-(3-(6-(2-((5-Cyclopropyl-1-methyl-1H-pyrazol-4-yl)amino)pyrimidin-4-yl)pyridin-2-yl)isoxazol-5-yl)-3-hydroxy-1-methylpyrrolidin-2-one]", "IC50": "< 50"}
{"compound": "Cc1nscc1Nc1nccc(-c2cccc(-c3cc([C@]4(O)CCN(C)C4=O)on3)n2)n1", "note": "[Example 229, (R)-3-Hydroxy-1-methyl-3-(3-(6-(2-((3-methylisothiazol-4-yl)amino)pyrimidin-4-yl)pyridin-2-yl)isoxazol-5-yl)pyrrolidin-2-one]", "IC50": "< 50"}
{"compound": "COc1cn([C@H]2C[C@@H](O)C2)nc1Nc1nccc(-c2cccc(-c3cc([C@]4(O)CCN(C)C4=O)on3)n2)n1", "note": "[Example 230, (R)-3-Hydroxy-3-(3-(6-(2-((1-((1s,3s)-3-hydroxycyclobutyl)-4-methoxy-1H-pyrazol-3-yl)amino)pyrimidin-4-yl)pyridin-2-yl)isoxazol-5-yl)-1-methylpyrrolidin-2-one]", "IC50": "< 50"}
{"compound": "COc1cn([C@H]2C[C@H](O)C2)nc1Nc1nccc(-c2cccc(-c3cc([C@]4(O)CCN(C)C4=O)on3)n2)n1", "note": "[Example 231, (R)-3-Hydroxy-3-(3-(6-(2-((1-((1r,3r)-3-hydroxycyclobutyl)-4-methoxy-1H-pyrazol-3-yl)amino)pyrimidin-4-yl)pyridin-2-yl)isoxazol-5-yl)-1-methylpyrrolidin-2-one]", "IC50": "< 50"}
{"compound": "CN1CC[C@@](O)(c2cc(-c3cccc(-c4ccnc(Nc5cn(C)nc5OCCO)n4)n3)no2)C1=O", "note": "[Example 232, (R)-3-Hydroxy-3-(3-(6-(2-((3-(2-hydroxyethoxy)-1-methyl-1H-pyrazol-4-yl)amino)pyrimidin-4-yl)pyridin-2-yl)isoxazol-5-yl)-1-methylpyrrolidin-2-one]", "IC50": "50 to 500"}
{"compound": "Cc1nn(C2CCOCC2)cc1Nc1nccc(-c2cccc(-c3cc([C@]4(O)CCN(C)C4=O)on3)n2)n1", "note": "[Example 233, (R)-3-Hydroxy-1-methyl-3-(3-(6-(2-((3-methyl-1-(tetrahydro-2H-pyran-4-yl)-1H-pyrazol-4-yl)amino)pyrimidin-4-yl)pyridin-2-yl)isoxazol-5-yl)pyrrolidin-2-one]", "IC50": "< 50"}
{"compound": "Cc1nn(CC(C)(C)O)cc1Nc1nccc(-c2cccc(-c3cc([C@]4(O)CCN(C)C4=O)on3)n2)n1", "note": "[Example 234, (R)-3-Hydroxy-3-(3-(6-(2-((1-(2-hydroxy-2-methylpropyl)-3-methyl-1H-pyrazol-4-yl)amino)pyrimidin-4-yl)pyridin-2-yl)isoxazol-5-yl)-1-methylpyrrolidin-2-one]", "IC50": "< 50"}
{"compound": "Cc1nn(CC(C)(C)O)cc1Nc1nccc(-c2cccc(-c3cc([C@@]4(O)C(=O)N(C)CC4(F)F)on3)n2)n1", "note": "[Example 235, (R)-4,4-Difluoro-3-hydroxy-3-(3-(6-(2-((1-(2-hydroxy-2-methylpropyl)-3-methyl-1H-pyrazol-4-yl)amino)pyrimidin-4-yl)pyridin-2-yl)isoxazol-5-yl)-1-methylpyrrolidin-2-one]", "IC50": "< 50"}
